Tests used:
Assay in all cases: relative viability (nuclei count vs DMSO), 5 days (fraction); higher = more cells survive
Vemurafenib + OSI-027 = compound: CCCS(=O)(=O)Nc1ccc(F)c(C(=O)c2c[nH]c3ncc(-c4ccc(Cl)cc4)cc23)c1F [Vemurafenib] + COc1cccc2cc(-c3nc([C@H]4CC[C@H](C(=O)O)CC4)n4ncnc(N)c34)[nH]c12 [OSI-027] (partner 0.5 µM)
How it was run: (§1)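 Nuclei were stained with Hoechst during a one-step fixation (final 0.05% Triton X-100, 1% formaldehyde, 1 ug/ml Hoechst) carried out 5 days after dosing, then counted on 4× images. The cells, lung cancer lines in 1536-well plates, had been dosed by pin tool the day after seeding with one drug alone or a fixed anchor-drug dose plus five library-drug doses (not always all listed) in √10 steps. Relative viability is the nuclei count in treated wells divided by that in vehicle wells, and each value is the median of duplicate plates.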

Vemurafenib + Crizotinib = compound: CCCS(=O)(=O)Nc1ccc(F)c(C(=O)c2c[nH]c3ncc(-c4ccc(Cl)cc4)cc23)c1F [Vemurafenib] + C[C@@H](Oc1cc(-c2cnn(C3CCNCC3)c2)cnc1N)c1c(Cl)ccc(F)c1Cl [Crizotinib] (partner 1 µM)
How it was run: as §1

Alpelisib + Tozasertib = compound: Cc1nc(NC(=O)N2CCC[C@H]2C(N)=O)sc1-c1ccnc(C(C)(C)C(F)(F)F)c1 [Alpelisib] + Cc1cc(Nc2cc(N3CCN(C)CC3)nc(Sc3ccc(NC(=O)C4CC4)cc3)n2)n[nH]1 [Tozasertib] (partner 0.1 µM)
How it was run: as §1

Vemurafenib + Decitabine = compound: CCCS(=O)(=O)Nc1ccc(F)c(C(=O)c2c[nH]c3ncc(-c4ccc(Cl)cc4)cc23)c1F [Vemurafenib] + Nc1ncn([C@H]2C[C@H](O)[C@@H](CO)O2)c(=O)n1 [Decitabine] (partner 2 µM)
How it was run: as §1

Cell Line	relative viability (Vemurafenib + OSI-027; first compound 0.03162 µM)	relative viability (Vemurafenib + OSI-027; first compound 0.1 µM)	relative viability (Vemurafenib + OSI-027; first compound 0.3162 µM)	relative viability (Vemurafenib + OSI-027; first compound 1 µM)	relative viability (Vemurafenib + Crizotinib; first compound 0.03162 µM)	relative viability (Vemurafenib + Crizotinib; first compound 0.1 µM)	relative viability (Vemurafenib + Crizotinib; first compound 0.3162 µM)	relative viability (Vemurafenib + Crizotinib; first compound 1 µM)	relative viability (Alpelisib + Tozasertib; first compound 0.04 µM)	relative viability (Alpelisib + Tozasertib; first compound 0.1265 µM)	relative viability (Alpelisib + Tozasertib; first compound 0.4 µM)	relative viability (Alpelisib + Tozasertib; first compound 1.265 µM)	relative viability (Alpelisib + Tozasertib; first compound 4 µM)	relative viability (Vemurafenib + Decitabine; first compound 0.03162 µM)	relative viability (Vemurafenib + Decitabine; first compound 0.1 µM)	relative viability (Vemurafenib + Decitabine; first compound 0.3162 µM)	relative viability (Vemurafenib + Decitabine; first compound 1 µM)
201T	0.757	0.78	0.776	0.497	0.997	0.993	1.09	1.02	0.934	0.918	0.917	0.838	0.8	0.821	0.825	0.886	0.799
A549					0.704	0.717	0.743	0.717						0.163	0.227	0.155	0.224
A-427	0.488	0.404	0.453	0.466	0.819	0.983	0.919	0.815	0.225	0.196	0.244	0.198	0.194	0.553	0.456		0.591
ABC-1	0.417	0.435	0.539	0.474	1.01	1.21	1.2	0.997	0.175	0.157	0.155	0.195	0.188	1.01	1.13	0.967	0.977
BEN	0.27	0.267		0.265	0.812	0.9	0.603	0.817	0.552	0.443	0.571	0.521	0.484	0.577	0.756	0.366	0.675
CAL-12T	0.542	0.461	0.801	0.503	0.759	0.644	0.592	0.689	0.295	0.308	0.246	0.212	0.317				
COR-L23	0.662	0.777	0.579	0.646	0.6	0.524	0.597	0.59	0.205	0.208	0.218	0.19	0.13	0.417	0.464	0.336	0.424
COR-L 105	0.649			0.582	0.623		0.661	1.13	0.372	0.343	0.591	0.306	0.334	0.556		0.645	0.651
Calu-6					0.595	0.808	0.783	0.668									
ChaGo-K-1	0.535	0.549	0.419	0.487	1.07	1.14		1.13	0.202	0.202	0.211	0.194	0.197	0.548	0.47	0.493	0.512
EBC-1					0.188	0.19	0.197	0.182									
EKVX	0.634		0.791	0.688	0.842		1	0.968	0.346	0.308	0.499	0.333	0.198	0.368		0.37	0.397
EMC-BAC-2	0.38	0.382	0.22	0.329	0.703	0.729	0.678	0.681	0.294	0.255	0.307	0.242	0.242	0.958	0.934		0.96
EPLC-272H	0.268	0.219	0.275	0.243	0.822	0.809	0.89	0.841	0.256	0.326	0.513	0.203	0.173	0.337	0.367	0.472	0.399
H3255	0.582		0.583	0.565	0.883		0.865	0.808	0.702	0.683	0.767	0.431	0.438	0.524		0.604	0.605
HARA	0.428	0.186	0.407	0.229	1.04		1.09	1.07	0.109	0.074	0.107	0.0657	0.0666	0.458	0.368	0.673	0.703
HCC-15	0.648	0.73		0.52	0.75	0.803	0.699	0.81	0.352	0.373	0.487	0.336	0.263	0.561	0.64	0.59	0.77
HCC-44	0.419	0.361		0.426	0.749	0.867	0.809	0.813	0.883	0.935	1.11	0.376	0.607	0.869	1.02	0.949	1
HCC-78	0.366	0.322	0.649	0.398	0.315	0.277	0.376	0.333	0.411	0.318	0.504	0.401	0.292	0.61	0.57	0.705	0.744
HCC-366	0.886	0.843	0.674	0.418	0.465	0.468		0.412	0.151	0.117	0.13	0.0701	0.0516	0.332	0.327		0.333
HCC-827	0.754		0.766	0.704	0.825		0.924	0.863	0.462	0.409	0.508	0.398	0.366	0.27		0.326	0.35
HOP-62	0.702	0.938	0.678	0.751	0.905	0.987	0.94	0.862	0.328	0.374	0.465	0.322	0.292	0.196	0.202	0.216	0.2
IA-LM					0.694	0.916	1.1	0.422									
LC-2-ad	0.753	0.629		0.747	0.315	0.461	0.377	0.392	0.377	0.372	0.431	0.307	0.348	0.8	0.706	0.859	0.796

Cell Line	relative viability (Vemurafenib + OSI-027; first compound 0.03162 µM)	relative viability (Vemurafenib + OSI-027; first compound 0.1 µM)	relative viability (Vemurafenib + OSI-027; first compound 0.3162 µM)	relative viability (Vemurafenib + OSI-027; first compound 1 µM)	relative viability (Vemurafenib + Crizotinib; first compound 0.03162 µM)	relative viability (Vemurafenib + Crizotinib; first compound 0.1 µM)	relative viability (Vemurafenib + Crizotinib; first compound 0.3162 µM)	relative viability (Vemurafenib + Crizotinib; first compound 1 µM)	relative viability (Alpelisib + Tozasertib; first compound 0.04 µM)	relative viability (Alpelisib + Tozasertib; first compound 0.1265 µM)	relative viability (Alpelisib + Tozasertib; first compound 0.4 µM)	relative viability (Alpelisib + Tozasertib; first compound 1.265 µM)	relative viability (Alpelisib + Tozasertib; first compound 4 µM)	relative viability (Vemurafenib + Decitabine; first compound 0.03162 µM)	relative viability (Vemurafenib + Decitabine; first compound 0.1 µM)	relative viability (Vemurafenib + Decitabine; first compound 0.3162 µM)	relative viability (Vemurafenib + Decitabine; first compound 1 µM)
LCLC-97TM1	0.49	0.612	0.713	0.43	0.287	0.246	0.301	0.278	0.206	0.176	0.178	0.146	0.117		0.236	0.242	0.213
LCLC-103H	0.41	0.474	0.39	0.443	1.06	1.06	1.01	1.09	0.462	0.448	0.482	0.357	0.37	0.698	0.714	0.717	0.75
LK-2	0.194	0.21	0.228	0.158	0.193	0.202	0.208	0.245	0.158	0.164	0.179	0.167	0.154	0.243	0.342	0.321	0.254
LOU-NH91	0.72			0.726	0.691	0.515		0.752	0.689	0.643	0.656	0.563	0.443	0.74	0.638	0.703	0.863
LU99A	0.325	0.28	0.244	0.287	0.531	0.489	0.516	0.526	0.283	0.26	0.308	0.259	0.23	0.843	0.907		0.719
LXF-289	0.758	0.668	0.622	0.772	0.783	0.796	0.838	0.87	0.21	0.182	0.249	0.134	0.128	0.329	0.303	0.377	0.35
NCI-H23	0.566	0.543	0.547	0.349	0.468	0.541	0.654	0.465	0.39	0.428	0.459	0.302	0.255	0.287	0.272	0.353	0.322
NCI-H322M	0.461			0.475	0.934		1.23	0.716	0.496	0.435	0.515	0.383	0.284	0.721		0.86	0.707
NCI-H358	0.7	0.47	0.928	0.882	0.619		0.72	0.528	0.111	0.114	0.116	0.0852	0.0831	0.211	0.228	0.226	0.229
NCI-H441	0.57	0.476	0.584	0.418	0.705	0.684	0.743	0.616	0.629	0.537	0.693	0.418	0.366	0.252	0.262	0.28	0.231
NCI-H460	0.549	0.623	0.456	0.473	0.808	0.809	0.692	0.942	0.153	0.44	0.563	0.181	0.241	0.435	0.511	0.485	0.501
NCI-H522	0.778	0.635	0.638	0.697					0.519	0.558	0.527	0.47	0.37	0.668	0.607	0.624	0.692
NCI-H1299					0.951	0.929	0.9	0.94									
NCI-H1395	0.606	0.651		0.659					0.823	0.695	0.743	0.616	0.735	0.726	0.698	0.706	0.72
NCI-H1563	0.693	0.757	0.734	0.723	0.825	0.744	0.823	0.852									
NCI-H1623	0.405		0.521	0.419					0.446	0.338	0.388	0.347	0.29				
NCI-H1648	0.261		0.335	0.259						0.68	0.607	0.27	0.22		0.351	0.762	0.463
NCI-H1703					0.605	0.449	0.453	0.593									
NCI-H1792	0.705	0.616		0.704	0.905	0.913	0.806	1						0.539	0.564		0.477
NCI-H1793	0.274		0.316	0.3					0.275	0.383	0.312	0.169	0.188	0.449	0.325	0.672	0.492
NCI-H2228	0.548	0.634	0.634	0.474	0.428	0.417	0.688	0.469	0.224	0.173	0.231	0.204	0.139				
NCI-H2342	0.621	0.561	0.577	0.643					0.419	0.473	0.389	0.401	0.367	0.705	0.702	0.773	0.706
SW 900	0.527	0.545	0.535	0.433					0.734	0.5	0.88	0.571	0.358	0.428	0.346	0.439	0.466
